Among the data in ChEMBL document CHEMBL2074403, “The solvents cremophor EL and Tween 80 modulate daunorubicin resistance in the multidrug resistant Ehrlich ascites tumor” (Cancer Commun, 1990) are Activity values, retold here.

In data set [1] the target is T1, ATP-dependent translocase ABCB1 (Homo sapiens, UniProt P08183). Briefly: TP_TRANSPORTER: inhibition of Daunorubicin efflux (Daunorubicin: 5 uM, Cremophor EL: 0.01 %(v/v)) in EHR2/DNR+ cells. The data set is classed as functional, cell-based. The note with it: mouse.
Data set [2] deals with T1, ATP-dependent translocase ABCB1. Description: TP_TRANSPORTER: inhibition of Daunorubicin efflux (Daunorubicin: 5 uM, Tween 80: 0.01 %(v/v)) in EHR2/DNR+ cells. The class given is functional, cell-based. Conditions: mouse.

T1 sequence (P08183 whole entry): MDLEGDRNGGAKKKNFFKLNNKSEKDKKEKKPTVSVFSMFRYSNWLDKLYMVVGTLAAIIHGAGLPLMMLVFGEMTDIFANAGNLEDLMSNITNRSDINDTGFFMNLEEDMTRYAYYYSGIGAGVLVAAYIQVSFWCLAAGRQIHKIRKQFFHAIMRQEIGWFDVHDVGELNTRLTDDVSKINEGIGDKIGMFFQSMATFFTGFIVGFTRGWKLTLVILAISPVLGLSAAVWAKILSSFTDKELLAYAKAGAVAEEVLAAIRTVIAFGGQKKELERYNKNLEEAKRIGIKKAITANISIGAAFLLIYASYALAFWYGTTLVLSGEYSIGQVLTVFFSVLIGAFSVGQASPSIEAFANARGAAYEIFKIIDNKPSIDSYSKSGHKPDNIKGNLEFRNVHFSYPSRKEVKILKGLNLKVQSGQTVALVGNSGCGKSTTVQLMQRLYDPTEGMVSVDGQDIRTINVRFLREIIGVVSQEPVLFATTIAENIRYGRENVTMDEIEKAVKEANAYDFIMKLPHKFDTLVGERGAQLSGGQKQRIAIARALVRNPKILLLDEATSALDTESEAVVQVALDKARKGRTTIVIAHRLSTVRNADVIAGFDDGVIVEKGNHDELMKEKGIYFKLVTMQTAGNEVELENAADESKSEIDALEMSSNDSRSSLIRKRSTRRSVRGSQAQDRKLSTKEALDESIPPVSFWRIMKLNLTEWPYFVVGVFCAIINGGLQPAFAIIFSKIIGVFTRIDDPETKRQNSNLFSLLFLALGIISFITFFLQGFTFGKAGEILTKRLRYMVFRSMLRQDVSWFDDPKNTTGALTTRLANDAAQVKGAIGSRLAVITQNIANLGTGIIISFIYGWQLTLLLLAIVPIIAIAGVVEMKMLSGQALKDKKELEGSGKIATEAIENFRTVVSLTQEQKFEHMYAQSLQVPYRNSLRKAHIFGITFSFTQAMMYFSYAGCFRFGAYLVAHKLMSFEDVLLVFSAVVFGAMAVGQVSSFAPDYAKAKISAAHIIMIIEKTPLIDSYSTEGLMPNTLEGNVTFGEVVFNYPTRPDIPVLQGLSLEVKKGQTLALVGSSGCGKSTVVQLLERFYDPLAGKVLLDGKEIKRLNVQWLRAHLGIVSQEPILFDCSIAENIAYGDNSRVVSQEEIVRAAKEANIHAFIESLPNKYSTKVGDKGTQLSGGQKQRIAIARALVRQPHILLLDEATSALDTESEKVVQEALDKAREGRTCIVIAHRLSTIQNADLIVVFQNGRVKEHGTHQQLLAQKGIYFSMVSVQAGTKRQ

For CREMOPHOR EL, the Activity entry in data set [1] was “inhibitor [+]”.

Turning to `CCCCCCCC/C=C\CCCCCCCC(=O)OCCOCC(OCCO)C1OCC(OCCO)C1OCCO` (configuration not stated) [TWEEN 80], the Activity entry in data set [2] is “inhibitor [+]”.
